The source made the active and inactive calls. No cut-off for these calls is given here.
Key:
[1] = molecular target: T1, Lysine-specific demethylase 4D (Homo sapiens) (UniProt Q6B0I6); experiment: Inhibition of purified recombinant KDM4D (1 to 350 aa) (unknown origin) expressed in Escherichia coli using H3K9me3 peptide as substrate after 30 mins by FDH-coupled assay
T1 sequence (whole entry): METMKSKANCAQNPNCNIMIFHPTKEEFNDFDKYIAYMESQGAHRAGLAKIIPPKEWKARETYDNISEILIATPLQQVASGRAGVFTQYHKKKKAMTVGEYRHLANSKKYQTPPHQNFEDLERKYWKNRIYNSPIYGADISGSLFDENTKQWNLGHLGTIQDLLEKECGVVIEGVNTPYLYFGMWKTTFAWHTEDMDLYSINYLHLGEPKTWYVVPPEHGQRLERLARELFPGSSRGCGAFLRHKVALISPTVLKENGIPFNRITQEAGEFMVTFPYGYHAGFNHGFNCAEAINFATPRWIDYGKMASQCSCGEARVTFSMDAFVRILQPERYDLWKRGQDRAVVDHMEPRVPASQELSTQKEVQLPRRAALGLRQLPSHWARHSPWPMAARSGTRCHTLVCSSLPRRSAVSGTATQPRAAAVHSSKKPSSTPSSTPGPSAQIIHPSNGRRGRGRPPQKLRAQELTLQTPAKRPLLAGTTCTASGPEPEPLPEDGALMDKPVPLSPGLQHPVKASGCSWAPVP

[2] = molecular target: T2, Lysine-specific demethylase 4E (Homo sapiens) (UniProt B2RXH2); experiment: Inhibition of purified recombinant KDM4E (1 to 347 aa) (unknown origin) expressed in Escherichia coli using H3K9me3 peptide as substrate after 30 mins by FDH-coupled assay
T2 sequence (whole entry): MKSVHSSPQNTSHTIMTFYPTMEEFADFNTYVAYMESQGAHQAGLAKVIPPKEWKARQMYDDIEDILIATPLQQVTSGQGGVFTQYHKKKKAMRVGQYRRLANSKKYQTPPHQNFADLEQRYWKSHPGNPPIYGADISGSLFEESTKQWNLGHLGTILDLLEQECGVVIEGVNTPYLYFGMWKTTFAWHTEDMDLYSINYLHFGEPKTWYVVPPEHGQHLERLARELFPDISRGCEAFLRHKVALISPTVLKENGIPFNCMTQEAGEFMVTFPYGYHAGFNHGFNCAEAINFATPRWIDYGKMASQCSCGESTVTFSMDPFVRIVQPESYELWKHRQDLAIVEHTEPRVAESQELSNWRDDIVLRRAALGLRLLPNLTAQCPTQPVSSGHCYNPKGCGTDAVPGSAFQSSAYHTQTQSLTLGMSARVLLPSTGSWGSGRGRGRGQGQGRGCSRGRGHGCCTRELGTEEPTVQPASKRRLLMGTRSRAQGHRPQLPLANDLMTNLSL

LNCaP = experiment: Cytotoxicity against human LNCAP cells after 3 days by MTT assay; type: functional, cell-based; conditions: 72 h
[3] = Cytotoxicity against human PNT2 cells at 5 to 20 uM measured over 6 days by MTT assay; type: cell-based; conditions: pnt2, 144 h

SMILES	inhibition [1]	inhibition [2]	CC50 (LNCaP) [µM]	Activity [3]
O=C(O)c1ccnc(C(=O)O)c1	Active	Active	589	–
O=[N+]([O-])c1cc([N+](=O)[O-])c(/C=C/c2ccc(Cl)c(Cl)c2)cc1/C=C/c1ccc(Cl)c(Cl)c1	inactive	inactive	–	Non-toxic

— ChEMBL document CHEMBL3352546, “KDM4B as a target for prostate cancer: structural analysis and selective inhibition by a novel inhibitor” (J Med Chem, 2014)
